The record followed here is ChEMBL document CHEMBL1157521, “Discovery of a potent, selective, and less flexible selective norepinephrine reuptake inhibitor (sNRI)” (Bioorg Med Chem Lett, 2008).

Some results are limits rather than exact numbers.

The target of experiment [1] is Sodium-dependent noradrenaline transporter (Homo sapiens, UniProt P23975). In words: Inhibition of norepinephrine uptake at human NET in human HEK293 cells. The format is cell-based.
The target in experiment [2] is Sodium-dependent serotonin transporter (Homo sapiens, UniProt P31645). The format is cell-based, HEK293.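 Further: blockade of serotonin uptake through human SERT expressed in HEK293 cells.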
Sequence of Sodium-dependent serotonin transporter (P31645 whole entry): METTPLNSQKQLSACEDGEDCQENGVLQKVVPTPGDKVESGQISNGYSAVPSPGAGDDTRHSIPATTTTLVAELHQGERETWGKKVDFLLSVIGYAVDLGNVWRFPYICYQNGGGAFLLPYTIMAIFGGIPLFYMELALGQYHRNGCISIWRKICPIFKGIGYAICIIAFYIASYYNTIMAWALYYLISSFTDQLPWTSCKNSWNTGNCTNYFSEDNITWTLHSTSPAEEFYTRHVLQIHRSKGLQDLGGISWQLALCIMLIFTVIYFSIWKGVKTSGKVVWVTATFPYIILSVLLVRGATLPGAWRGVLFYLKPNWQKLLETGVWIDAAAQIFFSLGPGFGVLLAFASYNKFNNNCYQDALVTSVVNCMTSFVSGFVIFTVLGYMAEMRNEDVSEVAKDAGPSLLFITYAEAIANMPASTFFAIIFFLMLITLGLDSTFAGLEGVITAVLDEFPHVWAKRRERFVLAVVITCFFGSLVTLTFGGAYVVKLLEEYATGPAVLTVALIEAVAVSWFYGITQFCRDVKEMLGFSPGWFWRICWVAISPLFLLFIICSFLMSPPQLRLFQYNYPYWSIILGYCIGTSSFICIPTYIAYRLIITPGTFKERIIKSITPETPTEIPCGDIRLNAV
The target in experiment [3] is Sodium-dependent dopamine transporter (Homo sapiens, UniProt Q01959). In words: Inhibition of dopamine uptake at human DAT in human HEK293 cells. The format is cell-based.
Sequence of Sodium-dependent dopamine transporter (Q01959 whole entry): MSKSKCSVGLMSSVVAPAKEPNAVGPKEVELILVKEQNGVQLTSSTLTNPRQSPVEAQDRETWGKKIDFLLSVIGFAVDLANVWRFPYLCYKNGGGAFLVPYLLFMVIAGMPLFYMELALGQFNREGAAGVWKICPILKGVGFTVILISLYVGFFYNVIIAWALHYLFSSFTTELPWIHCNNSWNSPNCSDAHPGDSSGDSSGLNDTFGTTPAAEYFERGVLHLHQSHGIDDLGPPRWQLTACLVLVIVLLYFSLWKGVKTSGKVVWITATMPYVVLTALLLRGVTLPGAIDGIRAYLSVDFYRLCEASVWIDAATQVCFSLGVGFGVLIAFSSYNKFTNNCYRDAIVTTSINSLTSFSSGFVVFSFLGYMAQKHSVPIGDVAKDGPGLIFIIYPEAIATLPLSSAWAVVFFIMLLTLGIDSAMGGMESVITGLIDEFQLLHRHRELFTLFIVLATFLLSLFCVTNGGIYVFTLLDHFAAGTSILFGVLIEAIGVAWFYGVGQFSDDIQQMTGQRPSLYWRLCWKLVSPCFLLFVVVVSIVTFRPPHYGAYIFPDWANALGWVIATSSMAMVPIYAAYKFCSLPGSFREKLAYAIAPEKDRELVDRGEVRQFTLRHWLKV
Experiment [4] concerns the target 5-hydroxytryptamine receptor 2B (Homo sapiens) (UniProt P41595). In words: Binding affinity to 5HT2B.
The target in the next experiment is Cytochrome P450 2D6 (Homo sapiens, UniProt P10635). Briefly: Inhibition of CYP2D6. The format is ADME.
Sequence of Cytochrome P450 2D6 (P10635 whole entry): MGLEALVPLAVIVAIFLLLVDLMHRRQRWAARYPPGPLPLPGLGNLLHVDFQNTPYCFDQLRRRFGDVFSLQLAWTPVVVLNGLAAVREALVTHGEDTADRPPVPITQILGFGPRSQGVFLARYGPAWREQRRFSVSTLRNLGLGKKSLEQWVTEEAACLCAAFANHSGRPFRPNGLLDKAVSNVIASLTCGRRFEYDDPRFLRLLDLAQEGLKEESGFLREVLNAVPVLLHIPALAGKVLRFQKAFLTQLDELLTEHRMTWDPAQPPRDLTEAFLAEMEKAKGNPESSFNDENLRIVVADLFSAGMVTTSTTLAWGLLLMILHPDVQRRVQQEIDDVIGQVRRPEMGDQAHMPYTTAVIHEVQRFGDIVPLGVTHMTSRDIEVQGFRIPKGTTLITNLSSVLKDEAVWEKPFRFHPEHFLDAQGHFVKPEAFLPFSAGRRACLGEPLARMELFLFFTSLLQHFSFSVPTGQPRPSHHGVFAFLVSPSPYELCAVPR

Sequence of Sodium-dependent noradrenaline transporter (P23975 whole entry): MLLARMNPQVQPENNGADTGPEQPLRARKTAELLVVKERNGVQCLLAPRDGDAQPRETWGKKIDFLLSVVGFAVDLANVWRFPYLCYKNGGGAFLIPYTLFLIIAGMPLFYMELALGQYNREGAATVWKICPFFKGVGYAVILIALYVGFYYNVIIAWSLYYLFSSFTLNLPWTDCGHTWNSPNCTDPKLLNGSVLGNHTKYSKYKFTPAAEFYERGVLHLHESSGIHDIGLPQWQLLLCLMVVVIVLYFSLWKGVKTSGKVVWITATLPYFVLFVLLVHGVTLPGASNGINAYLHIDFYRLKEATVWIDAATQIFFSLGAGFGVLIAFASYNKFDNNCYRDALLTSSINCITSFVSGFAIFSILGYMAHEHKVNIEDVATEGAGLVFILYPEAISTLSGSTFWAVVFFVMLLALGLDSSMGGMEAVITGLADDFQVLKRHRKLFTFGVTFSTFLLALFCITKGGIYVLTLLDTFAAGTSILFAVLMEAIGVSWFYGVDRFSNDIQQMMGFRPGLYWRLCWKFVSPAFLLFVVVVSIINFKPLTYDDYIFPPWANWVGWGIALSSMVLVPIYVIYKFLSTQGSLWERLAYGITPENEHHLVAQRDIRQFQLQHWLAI
Sequence of 5-hydroxytryptamine receptor 2B (Homo sapiens) (P41595 whole entry): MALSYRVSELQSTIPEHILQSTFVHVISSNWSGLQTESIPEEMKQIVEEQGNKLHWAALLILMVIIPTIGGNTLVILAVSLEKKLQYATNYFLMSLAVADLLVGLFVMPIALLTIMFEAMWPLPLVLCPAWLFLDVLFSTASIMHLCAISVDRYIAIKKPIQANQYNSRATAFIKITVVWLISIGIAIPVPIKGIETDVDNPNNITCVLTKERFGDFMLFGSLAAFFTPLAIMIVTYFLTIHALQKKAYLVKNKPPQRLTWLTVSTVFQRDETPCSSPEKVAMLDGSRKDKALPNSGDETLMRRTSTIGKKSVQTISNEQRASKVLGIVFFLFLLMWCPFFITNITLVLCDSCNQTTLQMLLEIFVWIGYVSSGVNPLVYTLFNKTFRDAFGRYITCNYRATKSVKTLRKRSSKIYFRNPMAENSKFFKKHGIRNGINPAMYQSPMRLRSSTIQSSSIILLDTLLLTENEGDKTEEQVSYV

A word on the IC50: it is the concentration needed to halve the response being measured. A low value points to greater potency in that assay. As to `CN[C@@H]1Cc2ccccc2[C@H](Oc2ccccc2C)C1`, the figures for the IC50 in experiment [1], in experiment [2] and in experiment [3] were 0.19 µM, 3 µM and greater than 10 µM, respectively.
With `CN[C@H]1Cc2ccccc2[C@H](Oc2ccccc2C)C1`, the IC50 in experiment [1] came out at 0.008 µM; in experiment [2], 0.59 µM; at Cytochrome P450 2D6, 0.25 µM; in experiment [3] it was 8 µM. This molecule yielded an Activity in experiment [4] of 250 nM.
As for `COc1ccc(O[C@H]2C[C@@H](N(C)C)c3ccccc32)cc1`, the IC50 in experiment [1] was 6 µM; in experiment [2] it was 0.13 µM; in experiment [3], greater than 10 µM.
The like results for `Cc1ccccc1O[C@@H]1C[C@@H](N(C)C)Cc2ccccc21` were, in that order, 0.43 µM, 0.7 µM and greater than 10 µM.
For the molecule `Cc1ccccc1O[C@H]1C[C@H](N(C)C)c2ccccc21`, the IC50 in experiment [1] amounted to 0.15 µM; in experiment [2] it was 0.15 µM; in experiment [3], 3.4 µM.
For the molecule `CN[C@@H]1Cc2ccccc2[C@@H](Oc2ccccc2C)C1`, the IC50 in experiment [1] amounted to 0.2 µM; in experiment [2], 3.3 µM; in experiment [3] it was 4.5 µM.
The like results for `CN[C@H]1Cc2ccccc2[C@@H](Oc2ccccc2C)C1` were, in that order, 0.16 µM, 1.1 µM and 6 µM.
`CN[C@@H]1C[C@H](Oc2ccccc2)c2ccccc21` (relative stereo): the concentration for half-maximal inhibition (IC50) was 2 µM in experiment [1], greater than 10 µM in experiment [2] and 5 µM in experiment [3].
The like results for `CN[C@@H]1C[C@H](Oc2ccccc2C)c2ccccc21` (relative stereo) were, in that order, 0.66 µM, 1.4 µM and 4.6 µM.
The like results for `CN[C@@H]1CC[C@H](Oc2ccccc2C)c2ccccc21` (relative stereo) were, in that order, 0.52 µM, 5 µM and 1 µM.
The like results for `Cc1ccccc1O[C@H]1CC[C@@H](N)c2ccccc21` (relative stereo) were, in that order, 0.63 µM, 2.3 µM and 1 µM.
For the molecule `Cc1ccccc1O[C@@H]1CC[C@@H](N)c2ccccc21` (relative stereo), the IC50 is 0.95 µM in experiment [1], greater than 10 µM in experiment [2] and 1 µM in experiment [3].
Regarding `Cc1ccccc1O[C@H]1C[C@H](N)c2ccccc21` (relative stereo), the IC50 in experiment [1] was 0.84 µM; in experiment [2], 10 µM; in experiment [3] it was 0.6 µM.
Consider `CN[C@H]1C[C@H](Oc2ccccc2C)c2ccccc21` (relative stereo), for which the values for the half-maximal inhibitory concentration (IC50) in experiment [1], in experiment [2] and in experiment [3] were 0.072 µM, 0.37 µM and 0.18 µM, respectively.
Turning to `CCN[C@@H]1C[C@H](Oc2ccccc2C)c2ccccc21` (relative stereo), the IC50 is 3 µM in experiment [1], 8 µM in experiment [2] and 2.5 µM in experiment [3].
With `CCN(CC)[C@@H]1C[C@H](Oc2ccccc2C)c2ccccc21` (relative stereo), the IC50 in experiment [1] came to 2 µM; in experiment [2], 3 µM; in experiment [3] it was 2.5 µM.
For the molecule `Cc1ccccc1O[C@H]1C[C@@H](N(C)C(C)C)c2ccccc21` (relative stereo), the results for the IC50 in experiment [1], in experiment [2] and in experiment [3] were 1.1 µM, greater than 10 µM and greater than 10 µM, respectively.
Turning to `CN(C)[C@@H]1C[C@H](Oc2ccc(Cl)cc2)c2ccccc21` (relative stereo), the figures for the concentration for half-maximal inhibition (IC50) in experiment [1], in experiment [2] and in experiment [3] were 1.6 µM, 0.05 µM and 7 µM, respectively.
On the same counts, the results for `COc1ccccc1O[C@H]1C[C@@H](N(C)C)c2ccccc21` (relative stereo) are 3 µM, 3.5 µM and greater than 10 µM.
As to `CN[C@@H]1C[C@H](Oc2ccc(Cl)cc2)c2ccccc21` (relative stereo), the IC50 in experiment [1] worked out at 4 µM; in experiment [2], 0.32 µM; in experiment [3], 4 µM.
As for `N[C@@H]1C[C@H](Oc2ccc(Cl)cc2)c2ccccc21` (relative stereo), the IC50 in experiment [1] was 4 µM; in experiment [2], 9 µM; in experiment [3], 2.4 µM.
As to `CN(C)[C@@H]1C[C@H](Oc2ccccc2)c2ccccc21` (relative stereo), the IC50 in experiment [1] is 0.8 µM; in experiment [2], 2 µM; in experiment [3], greater than 10 µM.
On the same counts, the results for `Cc1ccccc1O[C@H]1C[C@@H](N(C)C)c2ccccc21` (relative stereo) are 0.15 µM, 0.3 µM and 10 µM.
The like results for `N[C@@H]1C[C@H](Oc2ccccc2)c2ccccc21` (relative stereo) were, in that order, 5 µM, greater than 10 µM and 2 µM.
`CNCCC(Oc1ccccc1OC)c1ccccc1` (stereo not given) [NISOXETINE] showed an IC50 in experiment [2] of 1.4 µM.
